{"source": "patent US20260284051A1", "about": "“METHIONINE ADENOSYLTRANSFERASE 2A (MAT2A) INHIBITOR COMBINATIONS AND USES THEREOF” (INSILICO MEDICINE IP LIMITED, priority 2023, published 2026)", "tested_on": "HCC15 MTAP null xenografts", "test": "Efficacy study of HCC15 human lung cancer xenograft model in NOD SCID mice", "format": "in vivo", "conditions": "for Tumor volume (mm^3) Final (mean): Mean ± SD", "procedure": "Efficacy Study of HCC15 Human Lung Cancer Xenograft Model in NOD SCID Mice Methods:\nThe HCC15 cells were maintained in vitro as a monolayer culture in 90% 1640+10% FBS, 100U/ml penicillin and 100 μg/ml streptomycin at 37° C. in an atmosphere of 5% CO2 in air. The tumor cells were routinely subcultured at a ratio of 1:2 to 1:3 every 3-4 days. Alternatively, Cultures were maintained by addition or replacement of fresh medium. Started cultures at 5×10^5 cells/mL and maintained between 0.5×10^5 and 2×10^6 cells/ml.\nNOD SCID mice, female, 6-8 weeks, weighing approximately 20-22 g.\nEach mouse were inoculated subcutaneously at the right flank with HCC15 cells in a 0.2 mL mixture of 1640 for tumor development (5×10^6 cells/mouse). Dosing was started when the average tumor size reaches approximately 100-200 mm^3 for the tumor efficacy study with tool and med chem molecules to look for efficacy vs vehicle tumor growth.\nMean tumor volume at dosing start was approximately 133.09 mm^3, with ten mice randomized to each treatment group. In the HCC15 MTAP null tumor model, mice were dosed orally, once per day (QD) with Vehicle, once per day (QD) with Compound 1 at 3 mg/kg, once per day (QD) with AG270 at 100 mg/kg, mice were intravenous, per week with Docetaxel at 2.5 mg/kg, or Compound 1 combined with Docetaxel at each dose level."}
{"smiles": "C#CCNc1nc(=O)n(-c2cccnc2C)c2cc(C(F)(F)F)cc(OC)c12", "note": "[Example 36, 5-methoxy-1-(2-methylpyridin-3-yl)-4-(prop-2-yn-1-ylamino)-7-(trifluoromethyl)quinazolin-2(1H)-one]", "values": [{"measurement": "Tumor volume (mm^3) Final (mean)", "setting": "Compound 1 3 mg/kg orally QD", "result": "596 ± 63", "unit": "mm^3"}, {"measurement": "TGI (%)", "setting": "Compound 1 3 mg/kg orally QD, listed as Compound 1, 3 mg/kg", "result": 49.6, "unit": "%"}, {"measurement": "effect on tumor growth (in words)", "setting": "combination of Compound 1 3 mg/kg and Docetaxel 2.5 mg/kg", "result": "significantly inhibited tumor growth"}, {"measurement": "Tumor volume (mm^3) Final (mean)", "setting": "combination: Compound 1 3 mg/kg QD + Docetaxel 2.5 mg/kg per week", "result": "399 ± 42", "unit": "mm^3"}, {"measurement": "TGI (%)", "setting": "combination: Compound 1 3 mg/kg QD + Docetaxel 2.5 mg/kg per week, listed as Compound 1", "result": 71.2, "unit": "%"}]}
